Among the test systems are MDA-MB-231 breast; UO-31 renal; TK-10 renal; U251 CNS; OVCAR-3 ovarian; DU-145 prostate; HT29 colon; HCC-2998 colon; OVCAR-5 ovarian; SNB-75 CNS.
Common to all, as to assay: NCI tumour cell line growth inhibition, 48 h

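1) Cells in 96-well plates. 2) Compound, 48 h, 5 concentrations. 3) Linear interpolation between surrounding doses. 4) Unreached endpoint = highest concentration. The concentration for 50% growth inhibition is given as GI50. Definition used: TGI = concentration required for complete inhibition of growth.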 Where a SMILES comes first, the peptide text is derived from it. The star is where a group is joined. Palmitoyl = CCCCCCCCCCCCCCCC(=O)*

The text below walks through data of PubChem BioAssay (NCI).

Regarding `O[C@@]12Cc3c([nH]c4ccccc34)[C@@H]3Oc4cccc5c4[C@@]31CCN(CC1CC1)[C@@H]2C5`, the TGI in the assay on MDA-MB-231 breast came out at 40.4 µM; in the assay with UO-31 renal it was 32.9 µM; in the assay on TK-10 renal, 33.7 µM; with U251 CNS, 54 µM; with OVCAR-3 ovarian, 36.8 µM; in the assay on DU-145 prostate, 45.2 µM. Further, the TGI with HT29 colon was determined as 29.8 µM; with HCC-2998 colon, 31.9 µM; with OVCAR-5 ovarian it was 49.4 µM.

For `CCOC(=O)c1c(C)n(-c2ccc(Cl)cc2)c2c1cc(O)c1[nH]c3c(c12)CCCC3`, the TGI with MDA-MB-231 breast, with UO-31 renal, in the assay on TK-10 renal, in the assay with U251 CNS, in the assay with OVCAR-3 ovarian and with DU-145 prostate was > 100 µM in each case. The TGI in the assay on HT29 colon, in the assay on SNB-75 CNS, in the assay on HCC-2998 colon and in the assay on OVCAR-5 ovarian was > 100 µM throughout.

On to `COC(=O)C1=C(OC(=O)/C(=C/c2ccc(Cl)cc2)c2ccc(Cl)cc2)C(C(=O)OC)[C@]2(O)[C@@H](C(=O)OC)[C@H]1C[C@@H](c1ccccc1)[C@@H]2C(=O)OC` (stereo not given in full), for which the TGI with MDA-MB-231 breast, with TK-10 renal, in the assay on U251 CNS, with OVCAR-3 ovarian, in the assay with DU-145 prostate and in the assay on HT29 colon was > 100 µM each time. Besides, the TGI in the assay on SNB-75 CNS and in the assay on OVCAR-5 ovarian was > 100 µM each time.

Take `c1cnc2c(c1)ccc1cccnc12`: the TGI was > 100 µM in the assay on MDA-MB-231 breast; > 49.5 µM in the assay with UO-31 renal; > 92 µM with TK-10 renal; > 100 µM in the assay with U251 CNS; > 86.6 µM with OVCAR-3 ovarian; > 100 µM with DU-145 prostate. Further, the TGI in the assay on HT29 colon was > 100 µM; in the assay with SNB-75 CNS, > 39.7 µM; in the assay on HCC-2998 colon, > 62.4 µM; in the assay on OVCAR-5 ovarian, > 100 µM.

As for `COc1cc(C(C)O)c[n+](Cc2ccccc2)c1` (stereo not given), the TGI with UO-31 renal, with TK-10 renal, in the assay with U251 CNS, in the assay with OVCAR-3 ovarian, with HT29 colon and in the assay with SNB-75 CNS was > 100 µM throughout. Also, the TGI in the assay on HCC-2998 colon and in the assay with OVCAR-5 ovarian was > 100 µM throughout.

For `C/C(=N/N=C(\[O-])c1ccncc1)C(F)(F)F.C/C(=N\N=C(/[O-])c1ccncc1)C(F)(F)F.[Ni+2]`, the GI50 in the assay on U251 CNS, in the assay with DU-145 prostate, in the assay on HT29 colon, in the assay on SNB-75 CNS and in the assay on HCC-2998 colon was > 1 µM throughout. Besides, the TGI with DU-145 prostate, in the assay with HT29 colon, with SNB-75 CNS and with HCC-2998 colon was > 1 µM throughout.

Consider `CN1C(c2ccccc2)CC(=O)C(N)C1c1ccccc1` (stereo not given), for which the TGI in the assay on UO-31 renal was > 96.3 µM; in the assay with TK-10 renal, > 100 µM; in the assay with U251 CNS it was 49.2 µM; in the assay with OVCAR-3 ovarian, > 86.3 µM; in the assay with HT29 colon, 55.8 µM; with SNB-75 CNS, > 100 µM. For the same compound, the TGI is 43.3 µM in the assay with HCC-2998 colon and > 70.8 µM in the assay on OVCAR-5 ovarian.

In the case of `Nc1[nH]c(=O)nc2c1cnn2C1CCCCO1` (stereo not given), the TGI with UO-31 renal, with TK-10 renal, with U251 CNS, in the assay on HT29 colon, in the assay with SNB-75 CNS and in the assay on HCC-2998 colon was > 100 µM throughout. Besides, the TGI in the assay on OVCAR-5 ovarian was > 100 µM.

Consider `c1ccc(-c2nc(N3CCNCC3)c3oc(-c4ccccc4)nc3n2)cc1`, for which the GI50 in the assay on MDA-MB-231 breast is 1.76 µM; with UO-31 renal, 1.49 µM; in the assay on OVCAR-3 ovarian, 1.74 µM; in the assay on DU-145 prostate it was 1.88 µM; in the assay on SNB-75 CNS, 1.27 µM; in the assay with HCC-2998 colon it was 1.58 µM. For the same compound, the GI50 with OVCAR-5 ovarian was 1.69 µM. Also, the TGI in the assay with MDA-MB-231 breast worked out at 3.28 µM; in the assay with UO-31 renal, 2.85 µM; in the assay on OVCAR-3 ovarian it was 3.21 µM; in the assay on DU-145 prostate, 3.33 µM; in the assay on SNB-75 CNS it was 2.59 µM; in the assay on HCC-2998 colon, 3.05 µM. Further, the TGI in the assay with OVCAR-5 ovarian came out at 3.08 µM.

Turning to `CON(C)c1nc(N(C)OC)nc(N(C)OC)n1`, the TGI in the assay with MDA-MB-231 breast, in the assay with UO-31 renal, with TK-10 renal, with U251 CNS, in the assay with OVCAR-3 ovarian and with DU-145 prostate was > 10 µM throughout. The TGI in the assay on HT29 colon, in the assay on SNB-75 CNS, in the assay on HCC-2998 colon and with OVCAR-5 ovarian was > 10 µM throughout.

On to `CCCCCCCCCCCCCCCC(=O)N1CCCC1C(=O)NCC(=O)NC(Cc1ccccc1)C(=O)NC(C)C(=O)NC(CO)C(=O)NC(Cc1ccc(O)cc1)C(=O)NC(CCCCN)C(=O)NC(CC(C)C)C(=O)NC(CCCN=C(N)N)C(=O)N1CCCC1C(=O)NCC(N)=O` (stereo not given) (Palmitoyl-PGFASYKLRPG-NH2; configuration not given here), for which the GI50 with MDA-MB-231 breast is 12.5 µM; in the assay on UO-31 renal it was 21.9 µM; in the assay with TK-10 renal, 18.4 µM; in the assay with OVCAR-3 ovarian, 24.2 µM; with DU-145 prostate, 15.7 µM; in the assay with HT29 colon, 16.8 µM. Moreover, the GI50 is 22.9 µM in the assay on SNB-75 CNS, 13.4 µM in the assay on HCC-2998 colon and 15.4 µM in the assay with OVCAR-5 ovarian. For the same compound, the TGI in the assay on MDA-MB-231 breast is 26.5 µM; with UO-31 renal, 52.1 µM; in the assay on TK-10 renal it was 41.5 µM; in the assay on OVCAR-3 ovarian, 56.6 µM; in the assay on DU-145 prostate, 43.6 µM; with HT29 colon, 30.5 µM. Besides, the TGI in the assay with SNB-75 CNS was 43.5 µM; with HCC-2998 colon it was 28.9 µM; with OVCAR-5 ovarian, 38.6 µM.

As for `Cc1c(-c2ccccc2)[nH]c2cc(Cl)ccc2c1=O`, the TGI was > 100 µM in the assay on MDA-MB-231 breast; > 100 µM in the assay with TK-10 renal; 78.1 µM in the assay with U251 CNS; > 100 µM in the assay on OVCAR-3 ovarian; > 100 µM with DU-145 prostate; > 100 µM in the assay on HT29 colon. Also, the TGI in the assay with HCC-2998 colon and in the assay on OVCAR-5 ovarian was > 100 µM throughout.

With `Nc1nc(Nc2ccccc2)c2[nH]cnc2n1`, the TGI with MDA-MB-231 breast, in the assay with UO-31 renal, in the assay with TK-10 renal, with U251 CNS, with OVCAR-3 ovarian and in the assay on DU-145 prostate was > 100 µM each time. Moreover, the TGI in the assay on HT29 colon, in the assay with SNB-75 CNS and with HCC-2998 colon was > 100 µM throughout.

Consider `CC1=C(O)C2=C(C(=O)C1=O)[C@@H](C)CC[C@@H]2[C@@H](C)C/C=C/C(C)(C)O`, for which the TGI in the assay on MDA-MB-231 breast was > 100 µM; in the assay with UO-31 renal, > 100 µM; in the assay on U251 CNS, > 100 µM; in the assay with OVCAR-3 ovarian it was 79.2 µM; in the assay on DU-145 prostate, > 100 µM; in the assay on HT29 colon, > 100 µM. Further, the TGI in the assay with OVCAR-5 ovarian was > 100 µM.

With `OCCN(CCO)c1ncnc2nc[nH]c12`, the TGI in the assay with MDA-MB-231 breast, with UO-31 renal, in the assay with TK-10 renal, in the assay on U251 CNS, in the assay with OVCAR-3 ovarian and in the assay on DU-145 prostate was > 100 µM in each case. Moreover, the TGI in the assay on HT29 colon, in the assay on HCC-2998 colon and in the assay on OVCAR-5 ovarian was > 100 µM each time.

In the case of `CCN1CCC(O)(/C=C/c2ccccc2C)C(C(=O)/C=C/c2ccccc2C)C1` (stereo not given), the TGI came to 7.11 µM with MDA-MB-231 breast; 3 µM with UO-31 renal; 10.1 µM with TK-10 renal; 7.25 µM in the assay with U251 CNS; 4.77 µM with OVCAR-3 ovarian; 4.05 µM with DU-145 prostate. In addition, the TGI in the assay with HT29 colon stood at 6.7 µM; in the assay with SNB-75 CNS, 16.6 µM; with HCC-2998 colon it was 2.61 µM; in the assay on OVCAR-5 ovarian it was 3.99 µM.

On to `CC(N)Cc1ccc(Cl)c(Cl)c1` (stereo not given), for which the TGI is 66.3 µM with UO-31 renal; > 83 µM in the assay on TK-10 renal; > 89.6 µM with U251 CNS; > 100 µM with OVCAR-3 ovarian; 56.5 µM in the assay with HT29 colon; > 92.3 µM in the assay on SNB-75 CNS. The TGI with HCC-2998 colon was 31.2 µM; in the assay with OVCAR-5 ovarian it was > 82.5 µM.

For the compound `Nc1nc(O)c2ncn([C@H]3CC[C@@H](CO)O3)c2n1`, the TGI with UO-31 renal, in the assay with TK-10 renal, in the assay on U251 CNS, in the assay with OVCAR-3 ovarian, with DU-145 prostate and in the assay on HT29 colon was > 100 µM in each case. In addition, the TGI in the assay with SNB-75 CNS and in the assay on OVCAR-5 ovarian was > 100 µM each time.
